SMILES strings stand for the structures.

One series relates to MV4-11 cells. As to the kind of experiment: MV4-11 Cell Cytotoxicity Assay (CellTiter-Blue, 72 h). The format is cell-based, human. Particulars: Homo sapiens, MV4-11; MV-4-11 cells. The method in brief:
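Viability read-out: CellTiter-Blue, 1 h, fluorescence 560/590 nm. Preceded by 72 h exposure (37° C, 5% CO2) to twofold dilution series from 50 μM, triplicate, 0.5% DMSO vehicle, applied 24 h after plating.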
Background: Alamar Blue is a resazurin reagent that responds to reducing activity.

Another series relates to glutathione (GSH). As to the kind of experiment: Reactivity Profiling with Glutathione (GSH), half-life by HPLC. Particulars: 5 mM glutathione (GSH) in IMDM with 10% FBS.

Consider `O=C(O)c1ccc(N(Cc2ncccn2)C(=O)CN(Cc2ccccc2C(F)(F)F)S(=O)(=O)c2c(F)c(F)c(F)c(F)c2F)c(OC2CC2)c1` [Compound 1128, 3-cyclopropoxy-4-(2-(N-(2-(trifluoromethyl)benzyl)-(2,3,4,5,6-pentafluoro-phenyl)sulfonamido)-N-(pyrimidin-2-ylmethyl)acetamido) benzoic acid], for which the IC50 (commonly the concentration at which inhibition is half-maximal) with MV4-11 cells fell in the range of 1000 to 3160 nM. In the series with glutathione (GSH), the half-life (in general, how long it takes for the measured level to halve) at 25 μM fell in the range of 0.1 to 142 min.

In the series with MV4-11 cells, `O=C(O)c1ccc(N(C(=O)CN(Cc2ccccc2C(F)(F)F)S(=O)(=O)c2c(F)c(F)c(F)c(F)c2F)C2CCC2)c(OC2CC2)c1` [Compound 1129, 4-(N-cyclobutyl-2-(N-(2-(trifluoromethyl)benzyl)-(2,3,4,5,6-pentafluoro-phenyl)sulfonamido)acetamido)-3-cyclopropoxybenzoic acid] yielded a half-inhibitory concentration (IC50) of 3160 to 100000 nM. Also, in the series on glutathione (GSH), the half-life at 25 μM lay in the range of 142 to 247 min.

In the series on MV4-11 cells, `COc1cc(C(=O)O)ccc1N(Cc1cc(C2CC2)cc(C(C)(C)C)c1)C(=O)CN(Cc1ccncc1C(F)(F)F)S(=O)(=O)c1c(F)c(F)c(F)c(F)c1F` [Compound 1130, 4-(N-(3-(tert-butyl)-5-cyclopropylbenzyl)-2-(N-((3-(trifluoromethyl)pyridin-4-yl)methyl)-(2,3,4,5,6-pentafluoro-phenyl)sulfonamido)acetamido)-3-methoxybenzoic acid] returned an IC50 of 316 to 1000 nM. For the same molecule, in the series on glutathione (GSH), the half-life at 25 μM was in the range of 142 to 247 min.

On to `COc1cc(C(=O)O)ccc1N(Cc1cc(C2CC2)cc(C(C)(C)C)c1)C(=O)CN(Cc1ccc(C(F)(F)F)nc1)S(=O)(=O)c1c(F)c(F)c(F)c(F)c1F` [Compound 1132, 4-(N-(3-(tert-butyl)-5-cyclopropylbenzyl)-2-(N-((6-(trifluoromethyl)pyridin-3-yl)methyl)-(2,3,4,5,6-pentafluoro-phenyl)sulfonamido)acetamido)-3-methoxybenzoic acid], for which the IC50 in the series on MV4-11 cells fell in the range of 316 to 1000 nM. The half-life at 25 μM with glutathione (GSH) lay within 142 to 247 min.

As to `COc1cc(C(=O)O)ccc1N(Cc1cc(C2CC2)cc(C(C)(C)C)c1)C(=O)CN(Cc1ccnc(C(F)(F)F)c1)S(=O)(=O)c1c(F)c(F)c(F)c(F)c1F` [Compound 1133, 4-(N-(3-(tert-butyl)-5-cyclopropylbenzyl)-2-(N-((2-(trifluoromethyl)pyridin-4-yl)methyl)-(2,3,4,5,6-pentafluoro-phenyl)sulfonamido)acetamido)-3-methoxybenzoic acid], the IC50 with MV4-11 cells lay within 316 to 1000 nM. In the series with glutathione (GSH), this molecule yielded a half-life at 25 μM of 0.1 to 142 min.

In the series on MV4-11 cells, `COc1cc(C(=O)O)ccc1N(Cc1cc(C2CC2)cc(C(C)(C)C)c1)C(=O)CN(Cc1cc(C(F)(F)F)ccn1)S(=O)(=O)c1c(F)c(F)c(F)c(F)c1F` [Compound 1134, 4-(N-(3-(tert-butyl)-5-cyclopropylbenzyl)-2-(N-((4-(trifluoromethyl)pyridin-2-yl)methyl)-(2,3,4,5,6-pentafluoro-phenyl)sulfonamido)acetamido)-3-methoxybenzoic acid] returned an IC50 of 1000 to 3160 nM. This molecule returned a half-life at 25 μM in the series on glutathione (GSH) of 142 to 247 min.

As to `CC(C)(C)c1cc(CN(C(=O)CN(Cc2ccc(C(F)(F)F)cc2)S(=O)(=O)c2c(F)c(F)c(F)c(F)c2F)c2ccc(C(=O)O)cc2OC2CC2)cc(C2CC2)c1` [Compound 1136, 4-(N-(3-(tert-butyl)-5-cyclopropylbenzyl)-2-(N-(4-(trifluoromethyl)benzyl)-(2,3,4,5,6-pentafluoro-phenyl)sulfonamido)acetamido)-3-cyclopropoxybenzoic acid], the IC50 with MV4-11 cells is 1000 to 3160 nM. In the series with glutathione (GSH), this molecule displayed a half-life at 25 μM of 554 to 100000 min.

In the series with MV4-11 cells, `O=C(O)c1ccc(N(C(=O)CN(Cc2c(F)cc(F)cc2F)S(=O)(=O)c2c(F)c(F)c(F)c(F)c2F)C2CCC2)c(OC2CC2)c1` [Compound 1137, 4-(N-cyclobutyl-2-(N-(2,4,6-trifluorobenzyl)-(2,3,4,5,6-pentafluoro-phenyl)sulfonamido)acetamido)-3-cyclopropoxybenzoic acid] came in with an IC50 of 1000 to 3160 nM. The same molecule returned a half-life at 25 μM in the series on glutathione (GSH) of 0.1 to 142 min.

`COc1cc(C(=O)N(C)S(C)(=O)=O)ccc1N(Cc1cc(C2CC2)cc(C(C)(C)C)c1)C(=O)CN(Cc1cnccc1C(F)(F)F)S(=O)(=O)c1c(F)c(F)c(F)c(F)c1F` [Compound 1147, 4-(N-(3-(tert-butyl)-5-cyclopropylbenzyl)-2-(N-((4-(trifluoromethyl)pyridin-3-yl)methyl)-(2,3,4,5,6-pentafluoro-phenyl)sulfonamido)acetamido)-3-methoxy-N-methyl-N-(methylsulfonyl) benzamide] registered an IC50 in the series on MV4-11 cells of 0.01 to 316 nM. Further, in the series with glutathione (GSH), the half-life at 25 μM was in the range of 554 to 100000 min.

The molecule `COc1cc(C(=O)O)ccc1N(Cc1cccc(C(C)(C)C)c1)C(=O)CN(Cc1cnccc1C(F)(F)F)S(=O)(=O)c1c(F)c(F)c(F)c(F)c1F` [Compound 1149, 4-(N-(3-(tert-butyl)benzyl)-2-(N-((4-(trifluoromethyl)pyridin-3-yl)methyl)-(2,3,4,5,6-pentafluoro-phenyl)sulfonamido)acetamido)-3-methoxybenzoic acid] had an IC50 in the series on MV4-11 cells of 316 to 1000 nM. For the same molecule, in the series on glutathione (GSH), the half-life at 25 μM was 0.1 to 142 min.

For `COc1cc(C(=O)O)ccc1N(Cc1cccc(C(C)(C)C)c1)C(=O)CN(Cc1c(F)cc(F)cc1F)S(=O)(=O)c1c(F)c(F)c(F)c(F)c1F` [Compound 1150, 4-(N-(3-(tert-butyl)benzyl)-2-(N-(2,4,6-trifluorobenzyl)-(2,3,4,5,6-pentafluoro-phenyl)sulfonamido)acetamido)-3-methoxybenzoic acid], the half-inhibitory concentration (IC50) in the series with MV4-11 cells is 0.01 to 316 nM. In addition, the half-life at 25 μM in the series on glutathione (GSH) lay in the range of 0.1 to 142 min.

Molecule `COc1cc(C(=O)O)ccc1N(Cc1cc(C2CC2)cc(C(C)(C)C)c1)C(=O)CN(C12CC(C1)C2)S(=O)(=O)c1c(F)c(F)c(F)c(F)c1F` [Compound 1152, 4-(2-(N-(bicyclo[1.1.1]pentan-1-yl)-(2,3,4,5,6-pentafluorophenyl)sulfon-amido)-N-(3-(tert-butyl)-5-cyclopropylbenzyl)acetamido)-3-methoxybenzoic acid] returned an IC50 in the series with MV4-11 cells of 1000 to 3160 nM. In the series with glutathione (GSH), this molecule had a half-life at 25 μM of 0.1 to 142 min.

In the series on MV4-11 cells, `COc1cc(C(=O)O)ccc1N(Cc1cccc(N2CCCC2)c1)C(=O)CN(Cc1cnccc1C(F)(F)F)S(=O)(=O)c1c(F)c(F)c(F)c(F)c1F` [Compound 1153, 3-methoxy-4-(2-(N-((4-(trifluoromethyl)pyridin-3-yl)methyl)-(2,3,4,5,6-pentafluoro-phenyl)sulfonamido)-N-(3-(pyrrolidin-1-yl)benzyl)acetamido) benzoic acid] registered an IC50 of 316 to 1000 nM. This molecule showed a half-life at 25 μM in the series with glutathione (GSH) of 0.1 to 142 min.

Regarding `COc1cc(C(=O)O)ccc1N(Cc1ccc2ccccc2c1)C(=O)CN(Cc1cnccc1C(F)(F)F)S(=O)(=O)c1c(F)c(F)c(F)c(F)c1F` [Compound 1157, 3-methoxy-4-(N-(naphthalen-2-ylmethyl)-2-(N-((4-(trifluoromethyl)pyridin-3-yl)methyl)-(2,3,4,5,6-pentafluoro-phenyl)sulfonamido)acetamido)benzoic acid], the IC50 in the series on MV4-11 cells was 1000 to 3160 nM. The molecule further had a half-life at 25 μM in the series on glutathione (GSH) of 0.1 to 142 min.

Consider `O=C(O)c1ccc(N(Cc2cccc(-n3cccc3)c2)C(=O)CN(Cc2cnccc2C(F)(F)F)S(=O)(=O)c2c(F)c(F)c(F)c(F)c2F)c(OC2CC2)c1` [Compound 1161, 4-(N-(3-(1H-pyrrol-1-yl)benzyl)-2-(N-((4-(trifluoromethyl)pyridin-3-yl)methyl)-(2,3,4,5,6-pentafluoro-phenyl)sulfonamido)acetamido)-3-cyclopropoxybenzoic acid], for which, in the series on MV4-11 cells, the 50% inhibitory concentration (IC50) fell in the range of 316 to 1000 nM. In the series on glutathione (GSH), the half-life at 25 μM was 0.1 to 142 min.

The record behind these values is patent US20230159445A1, “STAT INHIBITORY COMPOUNDS AND COMPOSITIONS” (JANPIX LIMITED, priority 2020, published 2023).
